Patent publication US11318107B2, “Pharmaceutical active-containing film delivery device for oral transmucosal administration” (Avior, Inc., priority 2019, dated 2022)
Counter-ions that a name gives are not always drawn.

Tests used:
[1] = Solubility of nalmefene HCl in polar solvents at 100 mg/mL; assay type: physicochemical; conditions: test concentration 100 mg/mL
Text: Ethanol, propylene glycol, glycerol, methanol, and water were considered.

[2] = cited from earlier work
[3] = Solubility evaluation of nalmefene in solvent systems; assay type: physicochemical
Protocol: In addition, the solubility of nalmefene in varying concentrations was evaluated using different combinations of solvent systems. The solvent systems included combinations of polar solvents with different surface active agents. The solvent systems provided different volatilization rates. […] Exemplary surface active agents included: Tween 20, Tween 80, Gelucire® 34/44, Kolliphor® HS 15, Solutol® NF, Labrafil® M2125 CS and Labrafil® M1944 CS.

in vivo = conditions: both, beagle, dog, plasma, iv, 4 mg/animal
[4] = Pharmacokinetic study of nalmefene buccal films and nalmefene IV in beagle dogs (plasma, LC/MS, noncompartmental analysis); conditions: majority of concentrations, after buccal film or IV nalmefene, lower limit of quantitation 0.1 ng/mL

## C=C1CC[C@@]2(O)[C@H]3Cc4ccc(O)c5c4[C@@]2(CCN3CC2CC2)[C@H]1O5 [Nalmefene HCl Monohydrate]
[1]; Ethanol NF
  Solubility of Nalmefene HCl Monohydrate: Partially
[1]; Glycerol USP
  Solubility of Nalmefene HCl Monohydrate: Partially
[1]; Methanol
  Solubility of Nalmefene HCl Monohydrate: Highly
[1]; Propylene glycol USP
  Solubility of Nalmefene HCl Monohydrate: Partially
[1]; Water NF
  Solubility of Nalmefene HCl Monohydrate: Moderately high

## C=C1CC[C@@]2(O)[C@H]3Cc4ccc(O)c5c4[C@@]2(CCN3CC2CC2)[C@H]1O5 [Nalmefene hydrochloride]
[2]; amine
  pKa1: 8.38
[2]
  log P: 2.66
[2]; freely soluble
  Solubility in water: up to 130 mg/mL
[2]; phenol
  pKa2: 10.00
[2]; slightly soluble
  Solubility in chloroform: up to 0.13 mg/mL

## C=C1CC[C@@]2(O)[C@H]3Cc4ccc(O)c5c4[C@@]2(CCN3CC2CC2)[C@H]1O5 [nalmefene, 6-methylene-6-deoxy-N-cyclopropylmethyl-14 hydroxydihydronormorphine]
[3]; Ethanol:Water 75:25, nalmefene 200 mg/mL
  Solubility observation: Completely Soluble,
[3]; Ethanol:Water:Gelucire 34/14 75:20:5, nalmefene 200 mg/mL
  Solubility observation: Completely Soluble,
[3]; Ethanol:Water:Glycerine 70:20:10, nalmefene 300 mg/mL
  Solubility observation: Completely Soluble,
[3]; Ethanol:Water:Labrafil M1944 CS 80:17.5:2.5, nalmefene 200 mg/mL
  Solubility observation: Completely Soluble,
[3]; Ethanol:Water:Labrafil M2125 OS 80:17.5:2.5, nalmefene 200 mg/mL
  Solubility observation: Completely Soluble,
[3]; Ethanol:Water:Propylene Glycol 68:22:10, nalmefene 350 mg/mL
  Solubility observation: Completely Soluble,
[3]; Ethanol:Water:Propylene Glycol 82.5:12.5:5, nalmefene 200 mg/mL
  Solubility observation: Completely Soluble,
[3]; Ethanol:Water:Propylene Glycol:Tween 80 70:25:4:1, nalmefene 350 mg/mL
  Solubility observation: Completely Soluble,
[3]; Ethanol:Water:Tween 20 75:24.5:0.5, nalmefene 250 mg/mL
  Solubility observation: Completely Soluble,
In vivo
  Vd: 2.77 L/kg
  clearance: 46.2 mL/min/kg
  half-life: 1.34 h

## C=C1CC[C@@]2(O)[C@H]3Cc4ccc(O)c5c4[C@@]2(CCN3)[C@H]1O5 [nornalmefene]
[4]
  Nornalmefene (metabolite) plasma concentrations: below the limit of quantitation
